Measurements taken from ChEMBL document CHEMBL1201862, “PubChem BioAssay data set” (2004).
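Tested at 5 concentrations; 48 h exposure; 96-well plates; endpoints linearly interpolated, else capped at highest concentration. Abbreviation: GI50, concentration required for 50% inhibition of growth.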 Active and inactive are the calls of the source. Cut-off read from the data, not from the text of the source: active = GI50 up to about 1.1 µM and inactive = higher. Residues, ends and D or L forms follow the SMILES beside them. Groups on a side chain read outwards from the residue. *: point of attachment. Cbz = O=C(OCc1ccccc1)*; Boc = CC(C)(C)OC(=O)*

Columns and labels:
Assay in all cases: NCI anticancer screen, dose series, 48 h
NCI-H226 = test system: NCI-H226
SW-620 = test system: SW-620
SNB-19 = test system: SNB-19
UO-31 = test system: UO-31
EKVX = test system: EKVX
SK-MEL-28 = test system: SK-MEL-28
U-251 = test system: U-251
Hs-578T = test system: Hs-578T
786-0 = test system: 786-0
SNB-75 = test system: SNB-75
HOP-62 = test system: HOP-62
ACHN = test system: ACHN
T47D = test system: T47D
UACC-257 = test system: UACC-257
SF-539 = test system: SF-539
SK-MEL-5 = test system: SK-MEL-5
LOX IMVI = test system: LOX IMVI
RXF 393 = test system: RXF 393
RPMI-8226 = test system: RPMI-8226

Measured: GI50

O=C(Nc1ccc(Br)c2ccccc12)c1ccc2ccccc2c1O
inactive: NCI-H226 1.87 µM | SW-620 2.26 µM | SNB-19 4.17 µM | UO-31 2.51 µM | EKVX 3.13 µM | SK-MEL-28 4.7 µM | U-251 1.73 µM | Hs-578T 2.79 µM | 786-0 3.94 µM | SNB-75 2.3 µM | HOP-62 2.32 µM | ACHN 3.09 µM | T47D 1.73 µM | UACC-257 1.95 µM | SF-539 5.16 µM | SK-MEL-5 1.61 µM

Cn1c(COC(=O)Nc2ccccc2)c(COC(=O)Nc2ccccc2)c2ccc3cc(Cl)c(Cl)cc3c21
inactive: NCI-H226 13.4 µM | SW-620 2.69 µM | SNB-19 4.24 µM | UO-31 10.4 µM | EKVX 15.9 µM | LOX IMVI 2.52 µM | SK-MEL-28 3.61 µM | U-251 1.95 µM | Hs-578T 5.73 µM | 786-0 2.76 µM | SNB-75 8.53 µM | ACHN 8.79 µM | T47D 1.53 µM | UACC-257 8.39 µM | SF-539 10.8 µM | SK-MEL-5 4.62 µM | RXF 393 9.64 µM

CCOc1ccc2c(c1)C(/C(C(Cl)=C(Cl)Cl)=[N+](/[O-])OC(=O)c1ccccc1)=N2
inactive: NCI-H226 37.3 µM | SW-620 65.8 µM | SNB-19 93.1 µM | UO-31 > 100 µM | EKVX 15.4 µM | LOX IMVI 57.9 µM | SK-MEL-28 > 100 µM | U-251 46.7 µM | Hs-578T 52.8 µM | 786-0 72.4 µM | SNB-75 56.8 µM | HOP-62 65.8 µM | ACHN 73.1 µM | T47D 26 µM | UACC-257 43.2 µM | SF-539 79.3 µM | SK-MEL-5 35.3 µM | RXF 393 47.8 µM

COc1cccc(Nc2nc3c([nH]2)c(=O)n(C)c(=O)n3C)c1
inactive: SW-620 > 10 µM | EKVX > 10 µM | LOX IMVI > 10 µM | SK-MEL-28 > 10 µM | 786-0 > 10 µM | RPMI-8226 > 10 µM | SNB-75 > 10 µM | HOP-62 > 10 µM | T47D > 10 µM | UACC-257 > 10 µM | SK-MEL-5 > 10 µM | RXF 393 7.01 µM

O=C1CSC(c2cccc([N+](=O)[O-])c2)N1c1ccc(-c2ccc(-n3c(-c4ccccc4)nc4ccccc4c3=O)cc2)cc1 (stereo not given)
inactive: NCI-H226 44.1 µM | SW-620 40 µM | SNB-19 59.6 µM | UO-31 18.5 µM | EKVX 36.3 µM | LOX IMVI 34 µM | SK-MEL-28 43.6 µM | U-251 33.5 µM | Hs-578T 49.1 µM | 786-0 24.6 µM | RPMI-8226 30 µM | HOP-62 63.7 µM | ACHN 27 µM | T47D 17.9 µM | UACC-257 83.2 µM | SF-539 46.5 µM | SK-MEL-5 29.1 µM

O=C(/C=C/c1ccc(O)cc1)c1ccc2c(c1)OCO2
inactive: NCI-H226 15.5 µM | SW-620 19.1 µM | SNB-19 17.1 µM | UO-31 18.1 µM | EKVX 36.2 µM | LOX IMVI 18.7 µM | SK-MEL-28 20.9 µM | U-251 18.4 µM | 786-0 18 µM | SNB-75 12.4 µM | HOP-62 18.7 µM | ACHN 21.9 µM | T47D 26.6 µM | UACC-257 18.6 µM | SF-539 13.8 µM | SK-MEL-5 16 µM | RXF 393 19.3 µM

CCOC(=O)C1(C(=O)OCC)CN(CC)CN(c2ccccc2)C1
inactive: SW-620 30.6 µM | SNB-19 > 100 µM | UO-31 28 µM | EKVX 17.6 µM | LOX IMVI 91.2 µM | SK-MEL-28 18.7 µM | Hs-578T > 100 µM | 786-0 19.8 µM | RPMI-8226 18.2 µM | SNB-75 19.4 µM | HOP-62 21.1 µM | ACHN 19.9 µM | UACC-257 17.2 µM | SF-539 21.5 µM | SK-MEL-5 34.8 µM | RXF 393 17.1 µM

Cc1ccc(NC(=O)CC(=O)N2N=C(N3CCCCC3)CC2c2ccccc2)cc1 (stereo not given)
inactive: NCI-H226 > 100 µM | SW-620 > 100 µM | SNB-19 > 100 µM | UO-31 > 100 µM | EKVX > 100 µM | LOX IMVI > 100 µM | SK-MEL-28 > 100 µM | U-251 > 100 µM | Hs-578T > 100 µM | 786-0 > 100 µM | SNB-75 > 100 µM | HOP-62 > 100 µM | ACHN > 100 µM | T47D > 100 µM | UACC-257 > 100 µM | SK-MEL-5 > 100 µM | RXF 393 > 100 µM

N#CC(=N)c1ncn(-c2ccc(N)cc2)c1N
inactive: NCI-H226 > 100 µM | SW-620 > 100 µM | SNB-19 > 100 µM | UO-31 > 100 µM | EKVX > 100 µM | LOX IMVI > 100 µM | SK-MEL-28 > 100 µM | U-251 > 100 µM | Hs-578T > 100 µM | 786-0 > 100 µM | RPMI-8226 > 100 µM | SNB-75 > 100 µM | HOP-62 > 100 µM | ACHN > 100 µM | T47D > 100 µM | UACC-257 > 100 µM | SF-539 > 100 µM | SK-MEL-5 > 100 µM

COc1cc(C2=NNC(=O)c3ccccc3N2c2nc(-c3cccs3)nc3ccc(Br)cc23)cc(OC)c1OC
inactive: NCI-H226 36.1 µM | SW-620 18.4 µM | SNB-19 22.6 µM | UO-31 16.1 µM | EKVX 13 µM | SK-MEL-28 13.3 µM | U-251 6.1 µM | Hs-578T 5.48 µM | 786-0 6.95 µM | RPMI-8226 2.42 µM | SNB-75 55 µM | HOP-62 15.6 µM | ACHN 7.11 µM | T47D 15.1 µM | UACC-257 21.5 µM | SF-539 10.9 µM | SK-MEL-5 10.5 µM

CC(C)CC(NC(=O)OCc1ccccc1)C(=O)NCCCCC(NC(=O)C(CCCCNC(=O)C(CC(C)C)NC(=O)OCc1ccccc1)NC(=O)C(CCCCNC(=O)C(CC(C)C)NC(=O)OCc1ccccc1)NC(=O)C(CCCCNC(=O)C(CC(C)C)NC(=O)OCc1ccccc1)NC(=O)OC(C)(C)C)C(=O)O (stereo not given) (Boc-K([Leu-Cbz])K([Leu-Cbz])K([Leu-Cbz])K([Leu-Cbz])-OH; configuration not given here)
inactive: NCI-H226 > 25 µM | SW-620 > 25 µM | SNB-19 > 25 µM | UO-31 > 25 µM | LOX IMVI > 25 µM | SK-MEL-28 > 25 µM | U-251 > 25 µM | 786-0 > 25 µM | RPMI-8226 > 25 µM | SNB-75 > 25 µM | HOP-62 > 25 µM | ACHN > 25 µM | T47D > 25 µM | UACC-257 > 25 µM | SK-MEL-5 > 25 µM
